compound: CN1CCN(CC1)C2=CC(=C(C=C2)NC3=NC=C4C(=N3)N(C5=CC=CC=C5C(=O)N4C)C)OC [XMD8-85] + CC1(C)CCC(c2ccc(Cl)cc2)=C(CN2CCN(c3ccc(C(=O)NS(=O)(=O)c4ccc(N[C@H](CCN5CCOCC5)CSc5ccccc5)c(S(=O)(=O)C(F)(F)F)c4)cc3)CC2)C1 [Navitoclax] (partner 0.5 µM); assay: relative viability (nuclei count vs DMSO), 5 days (fraction); higher = more cells survive; settings: first compound 8 µM
How it was run: (§1)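 A single step with final 0.05% Triton X-100, 1% formaldehyde and 1 ug/ml Hoechst fixed the cells and stained nuclei 5 days after treatment. Lung cancer cell lines in 1536-well plates had been treated by pin tool the day after seeding with one drug alone or a fixed anchor-drug dose plus five library-drug doses (not always all listed) in √10 steps, and nuclei were counted on 4× images. Relative viability is the ratio of nuclei in treated wells to nuclei in vehicle wells, taken as the median of duplicate plates.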

| Cell Line | relative viability |
| --- | --- |
| NCI-H2170 | 0.666 |
| NCI-H2228 | 0.353 |
| NCI-H2347 | 0.63 |
| NCI-H2405 | 0.427 |

compound: O=C(O)C(Cc1ccccc1[N+](=O)[O-])=NNc1nc(-c2ccc(Cl)c(Cl)c2)cs1 (mixture of isomers) [4EGI-1] + COc1cc2c(Oc3ccc(NC(=O)C4(C(=O)Nc5ccc(F)cc5)CC4)cc3F)ccnc2cc1OCCCN1CCOCC1 [Foretinib] (partner 0.25 µM); assay: as above; settings: first compound 0.5 µM
How it was run: as §1

| Cell Line | relative viability |
| --- | --- |
| LU99A | 0.817 |
| LXF-289 | 0.992 |
| NCI-H23 | 1.04 |
| NCI-H322M | 1.03 |
| NCI-H441 | 0.909 |
| NCI-H460 | 1.02 |
| NCI-H520 | 0.89 |
| NCI-H596 | 0.856 |
| NCI-H647 | 1.44 |
| NCI-H838 | 1.03 |
| NCI-H1355 | 0.932 |
| NCI-H1395 | 1.15 |
| NCI-H1437 | 1.25 |
| NCI-H1650 | 1.37 |
| NCI-H1651 | 0.893 |
| NCI-H1666 | 1.01 |

| Cell Line | relative viability |
| --- | --- |
| NCI-H1734 | 1.02 |
| NCI-H1755 | 0.953 |
| NCI-H1793 | 0.645 |
| NCI-H1915 | 1.13 |
| NCI-H1944 | 0.894 |
| NCI-H1975 | 0.932 |
| NCI-H1993 | 0.812 |
| NCI-H2009 | 1.28 |
| NCI-H2023 | 0.88 |
| NCI-H2085 | 0.826 |
| NCI-H2087 | 1.23 |
| NCI-H2126 | 1.34 |
| NCI-H2170 | 0.951 |
| NCI-H2228 | 0.906 |
| NCI-H2347 | 0.989 |
| NCI-H2405 | 1.06 |

same assay, conditions: first compound 1.581 µM

| Cell Line | relative viability |
| --- | --- |
| LU99A | 0.605 |
| LXF-289 | 0.944 |
| NCI-H441 | 0.929 |
| NCI-H520 | 0.812 |
| NCI-H596 | 0.644 |
| NCI-H1355 | 0.87 |
| NCI-H1395 | 0.86 |
| NCI-H1437 | 1.12 |
| NCI-H1651 | 0.608 |
| NCI-H1666 | 0.924 |
| NCI-H1734 | 0.803 |
| NCI-H1755 | 0.854 |
| NCI-H1793 | 0.948 |
| NCI-H1915 | 0.858 |
| NCI-H1975 | 0.814 |
| NCI-H1993 | 0.7 |
| NCI-H2009 | 1.29 |
| NCI-H2085 | 1.02 |
| NCI-H2087 | 1.09 |
| NCI-H2126 | 1.55 |
| NCI-H2170 | 0.958 |
| NCI-H2228 | 0.878 |
| NCI-H2347 | 0.835 |
| NCI-H2405 | 1 |

same assay, conditions: first compound 5 µM

| Cell Line | relative viability |
| --- | --- |
| LU99A | 0.856 |
| LXF-289 | 1 |
| NCI-H23 | 1.1 |
| NCI-H322M | 1.13 |
| NCI-H441 | 1.01 |
| NCI-H460 | 0.997 |
| NCI-H520 | 0.937 |
| NCI-H596 | 0.796 |
| NCI-H647 | 1.18 |
| NCI-H838 | 1.13 |
| NCI-H1355 | 0.962 |
| NCI-H1395 | 1.04 |
| NCI-H1437 | 1.24 |
| NCI-H1650 | 1.04 |
| NCI-H1651 | 0.818 |
| NCI-H1666 | 1.04 |

| Cell Line | relative viability |
| --- | --- |
| NCI-H1734 | 0.971 |
| NCI-H1755 | 0.872 |
| NCI-H1793 | 0.686 |
| NCI-H1915 | 1.08 |
| NCI-H1944 | 0.974 |
| NCI-H1975 | 1.01 |
| NCI-H1993 | 0.708 |
| NCI-H2009 | 1.27 |
| NCI-H2023 | 0.772 |
| NCI-H2085 | 1.07 |
| NCI-H2087 | 1.39 |
| NCI-H2126 | 1.28 |
| NCI-H2170 | 0.74 |
| NCI-H2228 | 0.938 |
| NCI-H2347 | 1.11 |
| NCI-H2405 | 1.13 |

same assay, conditions: first compound 15.81 µM

| Cell Line | relative viability |
| --- | --- |
| LU99A | 0.616 |
| LXF-289 | 0.943 |
| NCI-H23 | 0.933 |
| NCI-H322M | 0.816 |
| NCI-H441 | 0.882 |
| NCI-H460 | 0.686 |
| NCI-H520 | 0.875 |
| NCI-H596 | 0.757 |
| NCI-H647 | 1.24 |
| NCI-H838 | 1.04 |
| NCI-H1355 | 0.851 |
| NCI-H1395 | 0.986 |
| NCI-H1437 | 1.04 |
| NCI-H1650 | 0.749 |
| NCI-H1651 | 0.729 |
| NCI-H1666 | 0.671 |

| Cell Line | relative viability |
| --- | --- |
| NCI-H1734 | 0.827 |
| NCI-H1755 | 0.815 |
| NCI-H1793 | 0.443 |
| NCI-H1915 | 1.07 |
| NCI-H1944 | 0.782 |
| NCI-H1975 | 0.844 |
| NCI-H1993 | 0.684 |
| NCI-H2009 | 1.23 |
| NCI-H2023 | 0.45 |
| NCI-H2085 | 0.814 |
| NCI-H2087 | 0.855 |
| NCI-H2126 | 1.07 |
| NCI-H2170 | 1.01 |
| NCI-H2228 | 0.882 |
| NCI-H2347 | 0.806 |
| NCI-H2405 | 1.13 |

same assay, conditions: first compound 50 µM

| Cell Line | relative viability |
| --- | --- |
| LU99A | 0.551 |
| LXF-289 | 0.771 |
| NCI-H23 | 0.638 |
| NCI-H322M | 0.342 |
| NCI-H441 | 0.447 |
| NCI-H460 | 0.228 |
| NCI-H520 | 0.638 |
| NCI-H596 | 0.75 |
| NCI-H647 | 0.66 |
| NCI-H838 | 0.369 |
| NCI-H1355 | 0.738 |
| NCI-H1395 | 0.589 |
| NCI-H1437 | 0.521 |
| NCI-H1650 | 0.405 |
| NCI-H1651 | 0.784 |
| NCI-H1666 | 0.417 |
| NCI-H1734 | 0.472 |
| NCI-H1755 | 0.704 |
| NCI-H1793 | 0.33 |
| NCI-H1915 | 0.928 |
| NCI-H1944 | 0.655 |
| NCI-H1975 | 0.729 |
| NCI-H1993 | 0.614 |
| NCI-H2009 | 0.981 |
| NCI-H2023 | 0.149 |
| NCI-H2085 | 0.541 |
| NCI-H2087 | 0.29 |
| NCI-H2126 | 0.785 |
| NCI-H2170 | 0.582 |
